{
  "source": "patent US20090269795A1",
  "about": "“Mutant alpha4betadelta GABAA receptor and methods of treating anxiety or irritability” (priority 2007, published 2009)",
  "key": {"[1]": {"target": "T1, α4(R353C)β2δ GABAA receptors (UniProt P63138+Q9D6F4, R389C)", "T1 construct": "expressed in transfected cells; host or cells: HEK-293", "assay": "Patch clamp of GABA-gated current at mutated receptors in HEK-293 cells", "assay_type": "cell-based, mouse α4", "details": "30 nM THP", "protocol": "(§1) Whole cell patch clamp recording—GABA-gated currents were recorded at room temperature (20-22° C.) at a holding potential of −50 mV^14. The pipet solution contained (in mM): N-methyl-D-glucamine chloride 120, Cs4BAPTA 5 (Calbiochem), Mg-ATP 5, and an ATP regeneration system (20 mM Tris phosphocreatine and creatine kinase). Internal [Cl^−] or the holding potential were varied, using gluconate as the anion, to alter the direction of Cl^− flow, corrected for the junction potential. In some cases, current-voltage curves were constructed using the peak current response to agonist or agonist+THP across a range of holding potentials (−60 to +60) applied as 10 mV steps, or as a voltage ramp. […] Traces are presented as the average of 3 traces after subtraction of the leak current. […] This rapid application technique yields currents with a rapid rise phase. THP was also bath applied 30 s prior to tests of steroid effects. Currents were recorded using an Axopatch 1D amplifier (Axon Instruments) filtered at 2 kHz (four-pole Bessel filter) and detected at 10 kHz (pClamp 5.1). Analysis of peak current was accomplished with pClamp 9.2 and Origin software (Microcal).\n(§2) Mutagenesis: Site-directed mutations were made using the Quik-Change Mutagenesis Kit I or II (Stratagene Inc., La Jolla, Calif.). Numbering of mutated residues was based on the distance from arginine 99^19. Successful mutations were verified with double-stranded sequencing of end-products (Genewiz Inc., North Brunswick, N.J.).\n(§3) Recombinant receptors: Human embryonic kidney (HEK)-293 cells were transfected with α4 β2δ or other indicated subunit combinations (see Supplementary Methods) and co-transfected with enhanced green fluorescent protein for visualization. GABA-gated currents were recorded at room temperature (20-22° C.) at a holding potential of −50 mV^17 using a pipet solution containing 120 mM: N-methyl-D-glucamine chloride. Internal [Cl^−] or the holding potential were varied to alter the direction of Cl^− flow. […] Currents were recorded using an Axopatch 1D amplifier (Axon Instruments) filtered at 2 kHz (four-pole Bessel filter), detected at 10 kHz and analyzed with pClamp 9.2. Desensitization rate was determined using non-linear curve-fitting routines (Origin, Microcal; see next section)."}, "[2]": {"target": "T2, α4(R353K)β2δ GABAA receptors (UniProt P63138+Q9D6F4, R389K)", "T2 construct": "expressed in transfected cells; host or cells: HEK-293", "assay": "Patch clamp of GABA-gated current at mutated receptors in HEK-293 cells", "assay_type": "cell-based, mouse α4", "details": "30 nM THP", "protocol": "as §1, §2, §3"}, "[3]": {"target": "T3, α4[R353Q]β2δ GABAA receptors (UniProt P63138+Q9D6F4, R389Q)", "T3 construct": "expressed in transfected cells; host or cells: HEK-293", "assay": "Patch clamp of GABA-gated current at mutated receptors in HEK-293 cells", "assay_type": "cell-based, mouse α4", "details": "30 nM THP", "protocol": "as §1, §2, §3"}, "[4]": {"test_system": "α4β2δ GABAA receptors with α4 mutations R351Q, K352Q, K316Q, R317Q and K318Q", "assay": "Patch clamp of GABA-gated current at mutated receptors in HEK-293 cells", "assay_type": "cell-based, mouse α4", "details": "30 nM THP", "protocol": "as §1, §2, §3"}, "[5]": {"test_system": "α4 and δ GABAA receptor subunits", "assay": "Western blot of hippocampal α4 and δ subunit expression", "assay_type": "in vivo, mouse", "details": "replacement THP 10 mg kg−1 day−1 for 3 days", "description": "Animal subjects. Prepubertal and pubertal female C57BL6 mice (3½-6 weeks old, +/+ and δ^−/−1) were housed in a reverse light:dark cycle (12:12). Both sets of mice were originally supplied by G. Homanics (Univ. of Pittsburgh), and were bred on site, with +/+ mice supplemented from Jackson Laboratories (Bar Harbor, Me.). Initially, age-matched+/+littermates of the δ^−/−were used as controls, but because they were indistinguishable from C57BL6, data from both groups were pooled. Genotyping of the tails verified that mice were homozygous δ^−/−. […] The onset of puberty was determined by vaginal opening, and pubertal mice tested on the day of first metestrus, identified by vaginal morphology and verification of first estrus the previous day. […] Individual stages of puberty were not distinguished, and pre-pubertal mice were used before any visible signs of pubertal development, assessed by development of the peri-vaginal area. […]\nWestern blot: Procedures were performed on hippocampal membranes at protein concentrations in the linear range (5-10 μg), as we have described^7. Following preparation of crude hippocampal membranes, individual protein concentrations were assessed using the Bradford assay. […] (The δ antibody was a generous gift from W. Sieghart.) Optical densities were quantified with One-Dscan software from a scanned image. […]"}},
  "data": [
    {"smiles": "CC(=O)[C@H]1CC[C@H]2[C@@H]3CC[C@H]4C[C@H](O)CC[C@]4(C)[C@H]3CC[C@]12C", "note": "[THP, 3α-OH-5α[β]-pregnan-20-one]", "values": [
      {"measurement": "steroid-induced reduction in outward current at mutant receptor", "setting": "[1]", "result": "prevented the steroid-induced reduction in outward current"},
      {"measurement": "THP inhibition of outward current at mutant receptor", "setting": "[2]", "result": "did not prevent THP inhibition of outward current"},
      {"measurement": "effect on inward current", "setting": "[3]", "result": "increased inward current"},
      {"measurement": "steroid-induced reduction in outward current at mutant receptor", "setting": "[3]; R353Q", "result": "prevented the steroid-induced reduction in outward current"},
      {"measurement": "effect of mutation on THP inhibition of outward current", "setting": "[4]", "result": "had no effect"},
      {"measurement": "effect on increased expression of α4 and δ subunits at onset of puberty", "setting": "[5]", "result": "prevented"}
    ]}
  ]
}
